Results taken from ChEMBL document CHEMBL1909046, “DrugMatrix in vitro pharmacology data”.

Legend:
[1] = DRUGMATRIX: Serotonin (5-Hydroxytryptamine) 5-HT3 radioligand binding (ligand: [3H] GR-65630); assay type: cell membranes, Membrane; conditions: hek293; Not Active = under 50% inhibition at 10 µM
[2] = molecular target: T1, Vasoactive intestinal polypeptide receptor 1 (Homo sapiens, UniProt P32241); assay type: cell membranes, Membrane; conditions: ht-29; note: in other assays of this panel Not Active means under 50% inhibition at 10 µM
T1 sequence (P32241 whole entry): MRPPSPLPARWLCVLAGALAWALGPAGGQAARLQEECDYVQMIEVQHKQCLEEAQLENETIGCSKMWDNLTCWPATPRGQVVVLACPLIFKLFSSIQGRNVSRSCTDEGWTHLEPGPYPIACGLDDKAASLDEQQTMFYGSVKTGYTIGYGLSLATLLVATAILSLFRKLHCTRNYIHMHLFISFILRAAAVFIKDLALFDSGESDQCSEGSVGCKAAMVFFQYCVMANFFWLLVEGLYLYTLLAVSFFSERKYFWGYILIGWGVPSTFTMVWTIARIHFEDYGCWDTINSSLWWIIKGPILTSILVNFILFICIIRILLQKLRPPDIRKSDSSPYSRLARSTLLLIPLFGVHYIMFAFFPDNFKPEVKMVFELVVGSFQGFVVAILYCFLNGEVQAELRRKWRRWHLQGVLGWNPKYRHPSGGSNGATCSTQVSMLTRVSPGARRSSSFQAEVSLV

[3] = molecular target: C-C chemokine receptor type 2 (Homo sapiens, UniProt P41597); assay type: cell membranes, CHO-K1, Membrane; conditions: cho-k1; note: in other assays of this panel Not Active means under 50% inhibition at 10 µM
[4] = molecular target: T2, Endothelin-1 receptor (Homo sapiens, UniProt P25101); assay type: cell membranes, Membrane; conditions: cho-k1; note: in other assays of this panel Not Active means under 50% inhibition at 10 µM
T2 sequence (P25101 whole entry): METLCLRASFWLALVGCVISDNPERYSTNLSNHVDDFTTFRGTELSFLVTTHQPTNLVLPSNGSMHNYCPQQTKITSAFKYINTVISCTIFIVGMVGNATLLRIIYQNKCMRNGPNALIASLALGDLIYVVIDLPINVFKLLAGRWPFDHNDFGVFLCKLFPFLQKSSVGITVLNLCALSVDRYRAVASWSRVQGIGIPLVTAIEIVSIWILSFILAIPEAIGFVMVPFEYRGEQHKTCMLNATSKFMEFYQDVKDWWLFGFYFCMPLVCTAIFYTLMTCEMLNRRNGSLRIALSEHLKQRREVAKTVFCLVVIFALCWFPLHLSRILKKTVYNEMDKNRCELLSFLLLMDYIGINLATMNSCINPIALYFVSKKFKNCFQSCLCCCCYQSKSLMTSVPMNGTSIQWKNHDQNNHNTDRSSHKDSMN

[5] = molecular target: Tyrosine-protein kinase Fyn (Homo sapiens, UniProt P06241); assay: biochemical; assay type: cell-based, Insect cells;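 note: enzymatic inhibition of Fyn kinase activity measured with Poly(Glu:Tyr) as the phosphorylation substrate; in other assays of this panel Not Active means under 50% inhibition at 10 µM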
[6] = molecular target: Receptor tyrosine-protein kinase erbB-2 (Homo sapiens, UniProt P04626); assay: biochemical; assay type: cell-based, Insect cells
Receptor tyrosine-protein kinase erbB-2, sequence (P04626 whole entry): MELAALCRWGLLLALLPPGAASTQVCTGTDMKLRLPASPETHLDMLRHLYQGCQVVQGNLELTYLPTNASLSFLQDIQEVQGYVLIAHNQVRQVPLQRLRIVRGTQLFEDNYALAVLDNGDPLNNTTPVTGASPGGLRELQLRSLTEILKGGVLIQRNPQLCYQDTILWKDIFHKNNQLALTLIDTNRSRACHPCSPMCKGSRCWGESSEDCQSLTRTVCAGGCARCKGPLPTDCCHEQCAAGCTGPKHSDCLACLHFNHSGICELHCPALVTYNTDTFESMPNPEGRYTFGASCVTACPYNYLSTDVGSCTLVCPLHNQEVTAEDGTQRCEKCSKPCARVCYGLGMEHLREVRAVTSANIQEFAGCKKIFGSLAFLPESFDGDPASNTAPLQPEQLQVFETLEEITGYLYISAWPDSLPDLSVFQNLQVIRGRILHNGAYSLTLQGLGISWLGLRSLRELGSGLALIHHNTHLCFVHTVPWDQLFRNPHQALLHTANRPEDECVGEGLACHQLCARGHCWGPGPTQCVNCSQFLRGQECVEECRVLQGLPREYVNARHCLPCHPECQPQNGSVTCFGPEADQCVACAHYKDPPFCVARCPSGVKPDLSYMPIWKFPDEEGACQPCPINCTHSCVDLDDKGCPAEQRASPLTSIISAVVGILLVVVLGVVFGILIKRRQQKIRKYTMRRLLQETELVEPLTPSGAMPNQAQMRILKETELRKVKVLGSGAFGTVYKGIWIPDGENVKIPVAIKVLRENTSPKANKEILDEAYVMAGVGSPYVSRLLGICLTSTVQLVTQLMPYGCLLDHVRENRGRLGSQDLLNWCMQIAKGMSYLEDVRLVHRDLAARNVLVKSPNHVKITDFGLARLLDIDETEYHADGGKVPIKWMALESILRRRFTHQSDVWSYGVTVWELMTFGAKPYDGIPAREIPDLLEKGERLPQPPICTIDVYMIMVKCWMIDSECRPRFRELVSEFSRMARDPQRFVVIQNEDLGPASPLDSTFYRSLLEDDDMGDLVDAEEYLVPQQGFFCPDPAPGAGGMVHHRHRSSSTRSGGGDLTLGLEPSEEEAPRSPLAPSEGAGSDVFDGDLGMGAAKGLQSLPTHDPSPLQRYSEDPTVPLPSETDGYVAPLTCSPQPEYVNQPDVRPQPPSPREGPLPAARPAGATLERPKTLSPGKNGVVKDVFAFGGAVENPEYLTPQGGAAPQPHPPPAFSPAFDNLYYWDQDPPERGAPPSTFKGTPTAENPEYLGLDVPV

C-C chemokine receptor type 2, sequence (P41597 whole entry): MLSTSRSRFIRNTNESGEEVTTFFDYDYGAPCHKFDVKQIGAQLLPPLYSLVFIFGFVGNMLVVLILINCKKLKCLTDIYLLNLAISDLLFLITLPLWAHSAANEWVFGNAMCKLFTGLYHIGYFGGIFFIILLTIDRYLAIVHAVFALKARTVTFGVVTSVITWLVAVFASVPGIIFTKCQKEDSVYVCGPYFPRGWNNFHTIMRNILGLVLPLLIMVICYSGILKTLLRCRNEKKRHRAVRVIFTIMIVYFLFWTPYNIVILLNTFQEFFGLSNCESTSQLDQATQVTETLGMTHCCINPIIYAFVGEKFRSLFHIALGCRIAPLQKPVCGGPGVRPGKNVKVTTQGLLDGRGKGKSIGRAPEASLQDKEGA
Tyrosine-protein kinase Fyn, sequence (P06241 whole entry): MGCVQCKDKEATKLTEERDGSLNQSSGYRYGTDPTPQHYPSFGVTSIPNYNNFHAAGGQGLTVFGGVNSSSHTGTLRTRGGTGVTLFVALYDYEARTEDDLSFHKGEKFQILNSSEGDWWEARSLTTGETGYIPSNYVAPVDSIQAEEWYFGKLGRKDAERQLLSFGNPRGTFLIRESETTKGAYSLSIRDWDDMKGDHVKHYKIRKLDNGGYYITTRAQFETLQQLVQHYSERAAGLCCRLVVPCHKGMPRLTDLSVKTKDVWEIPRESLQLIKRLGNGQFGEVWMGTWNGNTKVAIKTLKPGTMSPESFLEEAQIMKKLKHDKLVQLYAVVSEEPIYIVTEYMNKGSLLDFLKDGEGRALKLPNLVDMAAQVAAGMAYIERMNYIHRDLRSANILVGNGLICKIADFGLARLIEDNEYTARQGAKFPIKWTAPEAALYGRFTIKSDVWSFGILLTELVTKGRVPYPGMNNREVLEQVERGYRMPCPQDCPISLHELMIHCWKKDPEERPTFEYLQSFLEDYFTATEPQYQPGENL

| Compound | IC50 [1] | Ki [1] | IC50 [2] | IC50 [3] | IC50 [4] | IC50 ([5]; insect cells) | IC50 ([6]; insect cells) | IC50 [5] | IC50 ([6]; read-out: IC50) | IC50 ([5]; read-out: IC50) |
| --- | --- | --- | --- | --- | --- | --- | --- | --- | --- | --- |
| CC(=O)Nc1ccc(O)cc1 [ACETAMINOPHEN] | Not Active | Not Active | Not Active | Not Active | Not Active | Not Active | Not Active | – | – | – |
| CCc1c2c(nc3ccc(OC(=O)N4CCC(N5CCCCC5)CC4)cc13)-c1cc3c(c(=O)n1C2)COC(=O)[C@]3(O)CC [IRINOTECAN] | Not Active | Not Active | Not Active | Not Active | Not Active | Not Active | Not Active | – | – | – |
| C[C@]12CC[C@@H]3c4ccc(O)cc4CC[C@H]3[C@@H]1CC[C@@H]2O [ESTRADIOL] | Not Active | Not Active | Not Active | Not Active | Not Active | Not Active | Not Active | – | – | – |
| C#C[C@]1(OC(C)=O)CC[C@H]2[C@@H]3CCC4=CC(=O)CC[C@@H]4[C@H]3CC[C@@]21C [NORETHINDRONE ACETATE] | Not Active | Not Active | Not Active | Not Active | Not Active | Not Active | Not Active | – | – | – |
| N=C(Nc1ccccc1)Nc1ccccc1 | Not Active | Not Active | Not Active | Not Active | Not Active | Not Active | Not Active | – | – | – |
| ClC(Cl)Cl [CHLOROFORM] | Not Active | Not Active | Not Active | Not Active | Not Active | Not Active | Not Active | – | – | – |
| N=C(N)NC(=O)c1nc(Cl)c(N)nc1N [AMILORIDE] | Not Active | Not Active | Not Active | Not Active | Not Active | Not Active | Not Active | – | – | – |
| CCN1CC(CCN2CCOCC2)C(c2ccccc2)(c2ccccc2)C1=O (centres undefined) [DOXAPRAM] | Not Active | Not Active | Not Active | Not Active | Not Active | Not Active | Not Active | – | – | – |
| Cc1ccc(S(=O)(=O)NC(=O)NN2CC3CCCC3C2)cc1 (centres undefined) [GLICLAZIDE] | Not Active | Not Active | Not Active | Not Active | Not Active | Not Active | Not Active | – | – | – |
| COc1cccc2c1C(=O)c1c(O)c3c(c(O)c1C2=O)C[C@@](O)(C(=O)CO)C[C@@H]3O[C@H]1C[C@H](N)[C@H](O)[C@H](C)O1 [DOXORUBICIN] | Not Active | Not Active | Not Active | Not Active | Not Active | – | – | 5150 nM | 2490 nM | – |
| Cn1c(=O)c2c(ncn2CC2OCCO2)n(C)c1=O [DOXOFYLLINE] | Not Active | Not Active | Not Active | Not Active | Not Active | Not Active | Not Active | – | – | – |
| Cc1cc2cc3c(C)cc(=O)oc3c(C)c2o1 [TRIOXSALEN] | Not Active | Not Active | Not Active | Not Active | Not Active | Not Active | Not Active | – | – | – |
| Cc1ncc([N+](=O)[O-])n1CCO [METRONIDAZOLE] | Not Active | Not Active | Not Active | Not Active | Not Active | Not Active | Not Active | – | – | – |
| OC(CCN1CCCCC1)(c1ccccc1)C1CCCCC1 (centres undefined) [TRIHEXYPHENIDYL] | Not Active | Not Active | Not Active | Not Active | Not Active | Not Active | Not Active | – | – | – |
| O=C(C1CCCCC1)N1CC(=O)N2CCc3ccccc3C2C1 (centres undefined) [PRAZIQUANTEL] | Not Active | Not Active | Not Active | Not Active | Not Active | Not Active | Not Active | – | – | – |
| C=C1CC[C@H](O)C/C1=C/C=C1\CCC[C@]2(C)[C@@H]([C@H](C)CCCC(C)C)CC[C@@H]12 [CHOLECALCIFEROL] | Not Active | Not Active | Not Active | Not Active | Not Active | Not Active | Not Active | – | – | – |
| CC(=O)OCC(=O)[C@@]1(O)CC[C@H]2[C@@H]3CCC4=CC(=O)CC[C@]4(C)[C@H]3C(=O)C[C@@]21C [CORTISONE ACETATE] | Not Active | Not Active | Not Active | Not Active | Not Active | Not Active | Not Active | – | – | – |
| COc1ccc2[nH]c([S+]([O-])Cc3ncc(C)c(OC)c3C)nc2c1 (centres undefined) [OMEPRAZOLE] | Not Active | Not Active | Not Active | Not Active | Not Active | Not Active | Not Active | – | – | – |
| C[C@@]12C(=O)OC(=O)[C@]1(C)[C@H]1CC[C@@H]2O1 [CANTHARIDIN] | Not Active | Not Active | Not Active | Not Active | Not Active | Not Active | Not Active | – | – | – |
| Nc1c(CC(=O)O)cccc1C(=O)c1ccc(Br)cc1 [BROMFENAC] | Not Active | Not Active | Not Active | Not Active | Not Active | Not Active | Not Active | – | – | – |
| C[C@H]1O[C@@H](O[C@H]2[C@@H](O)C[C@H](O[C@H]3[C@@H](O)C[C@H](O[C@H]4CC[C@@]5(C)[C@H](CC[C@@H]6[C@@H]5CC[C@]5(C)[C@@H](C7=CC(=O)OC7)CC[C@]65O)C4)O[C@@H]3C)O[C@@H]2C)C[C@H](O)[C@@H]1O [DIGITOXIN] | Not Active | Not Active | Not Active | Not Active | Not Active | Not Active | Not Active | – | – | – |
| C[N+](C)(C)CCO.[Cl-] [CHOLINE CHLORIDE] | Not Active | Not Active | Not Active | Not Active | Not Active | Not Active | Not Active | – | – | – |
| CN(C)c1ccc(C(=C2C=CC(=[N+](C)C)C=C2)c2ccc(N(C)C)cc2)cc1.[Cl-] [GENTIAN VIOLET] | Not Active | Not Active | Not Active | Not Active | Not Active | – | Not Active | – | – | 2150 nM |
| O=S(=O)([O-])CCS.[Na+] [MESNA] | Not Active | Not Active | Not Active | Not Active | Not Active | Not Active | Not Active | – | – | – |
| O=C(O)Cc1ccccc1Nc1c(Cl)cccc1Cl [DICLOFENAC] | Not Active | Not Active | Not Active | Not Active | Not Active | Not Active | Not Active | – | – | – |
| COc1ccccc1C(=O)N1CCC(Cc2ccccc2)CC1 | Not Active | Not Active | Not Active | Not Active | Not Active | Not Active | Not Active | – | – | – |
| CCC1=C[C@@H]2CN(C1)Cc1c([nH]c3ccccc13)[C@@](C(=O)OC)(c1cc3c(cc1OC)N(C)[C@H]1[C@@](O)(C(=O)OC)[C@H](OC(C)=O)[C@]4(CC)C=CCN5CC[C@]31[C@@H]54)C2 [VINORELBINE] | Not Active | Not Active | Not Active | Not Active | Not Active | Not Active | Not Active | – | – | – |
